From patent US20220289732A1, “HETEROCYCLIC WDR5 INHIBITORS AS ANTI-CANCER COMPOUNDS” (NOVARTIS AG, priority 2019, published 2022)
pIC50: −log10 of the molar value.

Assays:
WDR5 = WDR5 (Homo sapiens, UniProt P61964); test: WDR5 HTRF binding assay; conditions: read-out: (a) WDR5 HTRF Pep Val v.1[Inhibitor/IC50]Qualified AC50
Protocol: The compounds were serially diluted 3-fold in DMSO to obtain a total of twelve concentrations. Then the test compounds at each concentration (90 nL of each) were transferred by Mosquito in the white Proxiplate plus 384-well microplate (Perkin Elmer). The assay mixture (typical 9 μL) containing 6 nM WDR5 and 20 nM Biotin-MLL1 WIN peptide (3762-3773) in the assay buffer (25 mM Hepes, pH7.5, 0.05% Tween 20, 2 mM DTT, 100 mM NaCl, 0.1% BSA) were added to the wells. For counter assay, a 9 μL solution of 15 nM Biotin-PEG-His peptide was added into the wells. After 20 min incubation at rt, a 3 μL detection solution containing 14 μg/ml Phycolink Streptavidin Allophycocyanin (Prozyme), 2 nM Anti-His-Eu (PerkinElmer) in assay buffer was then added. After 1 hr incubation, the plate was read in the EnVision reader (PerkinElmer) using the HTRF protocol (The protocol set-up: Lance/Delfia dual enhancer mirror, excitation at 320 UV2 (TRF), emission at APC665, 2nd emission at EuropiμM 615). HTRF signals were normalized based on the reading coming from the positive (maximum signal control) and negative controls (minimum signal control) to give percentage of activities left. The data were then fit to a dose response equation using the program Helios (Novartis) to get the IC50 values. Helios is a Novartis in-house assay data analysis software using the methods described by Normolle, D. P., Statistics in Medicine, 12:2025-2042 (1993); Formenko, I. et al., Computer Methods and programs in Biomedicine, 82, 31-37 (2006); Sebaugh, J. L., Pharmaceutical Statistics, 10:128-134 (2011); Kelly, C. et al., Biometrics, 46(4):1071-1085 (1990); and Kahm, M, et al., Journal of Statistical Software, 33(7):(2010) (grofit: Fitting Biological Growth Curves with R, pages 1-21, available at http://www.jstatsoft.org/).

[1] = target: wild type MLL1 four-member complex (MLL1-4C) (Homo sapiens, UniProt P61964); test: MLL1 LC-MS assay (SAH production); format: biochemical; conditions: read-out: (b) MLL LCMS Peptide Val.v.1 Qualified AC50
Protocol: The compounds of the present disclosure were serially and separately diluted 3-fold in DMSO to obtain a total of eight or twelve concentrations. Then the test compounds at each concentration (120 nL of each) were transferred by Mosquito into white Proxiplate plus 384-well microplate (PerkinElmer). Solutions (6 μL) of 60 nM wild type MLL1 four-member complex (MLL1-4C) and 5 μM SAM in the reaction buffer (20 mM Tris-HCl, pH8.0, 0.01% Tween 20, 1 mM DTT, 10 mM MgCl2, 0.01% BSA) were added to the wells that were then incubated with the test compound for 20 min. A 6 μL solution of 20 μM of the peptide substrate H3K4me0 (histone H3[1-21]-Biotin) in the reaction buffer was added to initiate each reaction. The final components in the reaction solution include 30 nM MLL1-4C, 2.5 μM SAM, and 10 μM H3K4me0 with varying concentration of the compounds. A positive control consisted of 30 nM MLL1-4C, 2.5 μM SAM, and 10 μM substrate in the absence of the test compound, and a negative control consisted of 2.5 μM SAM, and 10 μM substrate only. Each reaction was incubated at rt for 120 min, then stopped by addition of 3 μL per of quench solution (2.5% TFA with 320 nM d4-SAH). The reaction mixture was centrifuged (Eppendorf centrifuge 5810, Rotor A-4-62) for 2 min at 2000 rmp. The SAH production from the enzymatic assays were monitored by LC-MS/MS on an API 4000 triple quadrupole mass spec with Turbolon Spray (Applied Biosystem) coupled with Prominenece UFLC (Shimazu). The level of SAH production were then normalized based on the values coming from the positive and negative controls to give percent enzyme activities. The data were then fit to a dose response equation using the program Helios (Novartis) to get the IC50 values of the test compound. Helios is a Novartis in-house assay data analysis software using the methods described by Normolle, D. P., Statistics in Medicine, 12:2025-2042 (1993); Formenko, I. et al., Computer Methods and programs in Biomedicine, 82, 31-37 (2006); Sebaugh, J. L., Pharmaceutical Statistics, 10:128-134 (2011); Kelly, C. et al., Biometrics, 46(4):1071-1085 (1990); and Kahm, M, et al., Journal of Statistical Software, 33(7):(2010) (grofit: Fitting Biological Growth Curves with R, pages 1-21, available at http://www.jstatsoft.org/).

MV4-11 cells = test: MV4-11 6-day cell growth CTG (CellTiter-Glo) assay; format: cell-based; conditions: Homo sapiens, MV4-11, 144 h, 6 days, read-out: (c) MLL/WDR5 cell proliferation assay//MLL/WDR5 proliferation MV4:11 Qualified AC50
Protocol: MV4-11 6-Day Cell Growth CTG (CellTiter-Glo) Assay
Acute myeloid leukemia cell MV4-11 (ATCC® CRL-9591™) was cultured with RPMI 1640 medium (Thermo Fisher Scientific, cat #11875) supplemented with 10% FBS (Thermo Fisher Scientific, cat #10099141) in humidified incubator at 37° C., 5% CO2. To assess the effect of WDR5 inhibitor on cell growth, the compound of the present invention was dissolved in DMSO and serially diluted at 1:3 for 12 points starting from 10 mM then 200 nL for the replicate of each dose per well was dispensed to Viewplate-384 Black (Perkin Elmer). Exponentially growing MV4-11 cells were seeded at the density of 300 cells per well in 40 μL to the plate, so the final compound working concentration starts from 50 μM. After 6 days, 40 μL CellTiter-Glo (Promega, cat #G7573) was added into the cell culture well and luminescence was read with Envision (Perkin Elmer) to determine the viable cells. The percentage inhibition was calculated against the samples treated with DMSO only and the data were used for dose response curve fitting in GraphPad Prism to get the IC50 of representative compound of present invention, which reflects the inhibition of WDR5 activity in the proliferation of MV4;11.

| Structure (SMILES) | pIC50 (WDR5) | AC50 [1] [nM] | AC50 (MV4-11 cells) [nM] |
| --- | --- | --- | --- |
| CNc1nccn1Cc1cc(CN(C)C2CC2)c2c(c1)C(=O)N([C@@H](C)c1cnc(F)c(OC)c1)CC2 [Example 15, (S)-5-((cyclopropyl(methyl)amino)methyl)-2-(1-(6-fluoro-5-methoxypyridin-3-yl)ethyl)-7-((2-(methylamino)-1H-imidazol-1-yl)methyl)-3,4-dihydroisoquinolin-1(2H)-one] | 6.00 to 8.00 | 10 to 1000 | 10 to 1000 |
| CNc1nccn1Cc1cc(CN2CC[C@@H](F)C2)c2c(c1)C(=O)N([C@@H](C)c1cc(OC)c(F)cn1)CC2 [Example 16] | 6.00 to 8.00 | 10 to 1000 | 10 to 1000 |
| CNc1nccn1Cc1cc(CN2CCC23COC3)c2c(c1)C(=O)N([C@@H](C)c1cc(OC)c(F)cn1)CC2 [Example 17, (S)-5((6-oxa-1-azaspiro+3.3+heptan-1-yl)methyl)-2-(1-(5-fluoro-4-methoxypyridin-2-yl)ethyl)-7-((2-(methylamino)-1H-imidazol-1-yl)methyl)-3,4-dihydroisoquinolin-1(2H)-one] | 6.00 to 8.00 | 10 to 1000 | 10 to 1000 |
| CCOc1cc([C@H](C)N2CCc3c(CN(C)C4CC4)cc(Cn4ccnc4NC)cc3C2=O)ncc1C#N [Example 18, (S)-6-(1-(5-((cyclopropyl(methyl)amino)methyl)-7-((2-(methylamino)-1H-imidazol-1-yl)methyl)-1-oxo-3,4-dihydroisoquinolin-2(1H)-yl)ethyl)-4-ethoxynicotinonitrile] | 6.00 to 8.00 | 10 to 1000 | 10 to 1000 |
| CCOc1cc([C@H](C)N2CCc3c(CN(C)C)cc(Cn4ccnc4NC)cc3C2=O)ncc1Cl [Example 20, (S)-2-(1-(5-chloro-4-ethoxypyridin-2-yl)ethyl)-5-((dimethylamino)methyl)-7-((2-(methylamino)-1H-imidazol-1-yl)methyl)-3,4-dihydroisoquinolin-1(2H)-one] | 6.00 to 8.00 | 10 to 1000 | 10 to 1000 |
| CCOc1cc([C@H](C)N2CCc3c(CN(C)C4CC4)cc(Cn4ccnc4NC)cc3C2=O)ncc1F [Example 21, (S)-5-((cyclopropyl(methyl)amino)methyl)-2-(1-(4-ethoxy-5-fluoropyridin-2-yl)ethyl)-7-((2-(methylamino)-1H-imidazol-1-yl)methyl)-3,4-dihydroisoquinolin-1(2H)-one] | 6.00 to 8.00 | 10 to 1000 | 10 to 1000 |
| CCOc1cc([C@H](C)N2CCc3c(CN(C)C4CC4)cc(Cn4ccnc4NC)cc3C2=O)ncc1Cl [Example 22, (S)-2-(1-(5-chloro-4-ethoxypyridin-2-yl)ethyl)-5-((cyclopropyl(methyl)amino)methyl)-7-((2-(methylamino)-1H-imidazol-1-yl)methyl)-3,4-dihydroisoquinolin-1(2H)-one] | 6.00 to 8.00 | 10 to 1000 | 10 to 1000 |
| CCOc1cc([C@H](C)N2CCc3c(CN4CCOCC4)cc(Cn4ccnc4NC)cc3C2=O)ncc1Cl [Example 23, (S)-2-(1-(5-chloro-4-ethoxypyridin-2-yl)ethyl)-7-((2-(methylamino)-1H-imidazol-1-yl)methyl)-5-(morpholinomethyl)-3,4-dihydroisoquinolin-1(2H)-one] | 6.00 to 8.00 | 10 to 1000 | 10 to 1000 |
| CCOc1cc(CN2CCc3c(CN(C)C)cc(Cn4ccnc4NC)cc3C2=O)cnc1C#N [Example 24, 5-((5-((dimethylamino)methyl)-7-((2-(methylamino)-1H-imidazol-1-yl)methyl)-1-oxo-3,4-dihydroisoquinolin-2(1H)-yl)methyl)-3-ethoxypicolinonitrile] | 6.00 to 8.00 | 10 to 1000 | 10 to 1000 |
| CCOc1cc(CN2CCc3c(CN4CC(C)C4)cc(Cn4ccnc4NC)cc3C2=O)cnc1C#N [Example 25, 3-ethoxy-5-((7-((2-(methylamino)-1H-imidazol-1-yl)methyl)-5-((3-methylazetidin-1-yl)methyl)-1-oxo-3,4-dihydroisoquinolin-2(1H)-yl)methyl)picolinonitrile] | 6.00 to 8.00 | 10 to 1000 | 10 to 1000 |
| CCOc1cc(CN2CCc3c(CN(C)C4CC4)cc(Cn4ccnc4NC)cc3C2=O)cnc1C#N [Example 26, 5-((5-((cyclopropyl(methyl)amino)methyl)-7-((2-(methylamino)-1H-imidazol-1-yl)methyl)-1-oxo-3,4-dihydroisoquinolin-2(1H)-yl)methyl)-3-ethoxypicolinonitrile] | 6.00 to 8.00 | 10 to 1000 | 10 to 1000 |
| CCOc1cc([C@H](C)N2CCc3c(CN4CCOCC4)cc(Cn4ccnc4NC)cc3C2=O)ncc1F [Example 27, (S)-2-(1-(4-ethoxy-5-fluoropyridin-2-yl)ethyl)-7-((2-(methylamino)-1H-imidazol-1-yl)methyl)-5-(morpholinomethyl)-3,4-dihydroisoquinolin-1(2H)-one] | 6.00 to 8.00 | 10 to 1000 | 10 to 1000 |
| CCOc1cc([C@H](C)N2CCc3c(CN4CC(F)C4)cc(Cn4ccnc4NC)cc3C2=O)ncc1C#N [Example 28, (S)-4-ethoxy-6-(1-(5-((3-fluoroazetidin-1-yl)methyl)-7-((2-(methylamino)-1H-imidazol-1-yl)methyl)-1-oxo-3,4-dihydroisoquinolin-2(1H)-yl)ethyl)nicotinonitrile] | 6.00 to 8.00 | 10 to 1000 | 10 to 1000 |
| CNc1nccn1Cc1cc(CN(C)C)c2c(c1)C(=O)N([C@@H](C)c1cnc(F)c(OC)c1)CC2 [Example 29, (S)-5-((dimethylamino)methyl)-2-(1-(6-fluoro-5-methoxypyridin-3-yl)ethyl)-7-((2-(methylamino)-1H-imidazol-1-yl)methyl)-3,4-dihydroisoquinolin-1(2H)-one] | 6.00 to 8.00 | 10 to 1000 | 10 to 1000 |
